The results in this text go back to patent US10106542B2, “Substituted 6,7-dihydropyrazolo[1,5-a]pyrazines as negative allosteric modulators of mGluR2 receptors” (Janssen Pharmaceutica NV, priority 2013, dated 2018).

As a reminder, the Emax is the maximal effect, on the per cent scale that the assay sets. The term ED50 denotes the midpoint of the dose-response relation. In general, melting point refers to the temperature of the solid-liquid transition.

Data set [1] has as its target T1, human mGlu2 receptor (Homo sapiens, UniProt Q14416).
T1 construct: expressed in transfected cells; host or cells: CHO cells (membrane preparation)
The data set is described as follows: [35S]GTPγS binding assay (mGluR2 negative allosteric modulation). The following applies: for IC50: membranes from CHO cells transfected with human mGlu2 receptor, glutamate 60 μM, pIC50 = −log IC50 (M), read-out: GTPγS - hmGluR2 anGT pIC50 (converted); for Emax: relative maximal effect: maximal % inhibition relative to the control glutamate response, read-out: GTPγS - hmGluR2 anGT Emax. The format is biochemical. Summed up: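 Negative allosteric modulation read as [35S]GTPγS (0.1 nM) incorporation over 30 min at 30 °C, expressed as % of the response to an EC80-equivalent glutamate concentration. Assay used 7 μg human mGlu2 CHO membrane protein in HEPES pH 7.4 buffer with NaCl, MgCl2, GDP and saponin; bound label collected by filtration.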

Data set [2] deals with rats. The data set is described as follows: Reversal of the effect of the mGluR2 PAM JNJ-42153605 on scopolamine-induced hyperlocomotion. The format is in vivo. The settings on record: Rattus norvegicus, 1 h, Route PO, test compound 60 min before recording, criterion total distance >1500 cm. How it is done: 2) Reversal of the Effect of the mGluR2 PAM JNJ-42153605 on Scopolamine-Induced Hyperlocomotion Apparatus
Motor activity was measured in microprocessor-based motor activity arenas (closed gray PVC cylinders with a height of 39 cm and a diameter of 31 cm). Each arena was placed on an infrared LED (8×8 LEDs) lit box (white PVC squared box; 40×40 cm^2; height 12.5 cm. An infrared-sensitive tube camera and a white light source were mounted to the ceiling above the observation chamber to track the animal. The total distance traveled (cm) was recorded and analyzed using the Noldus Ethovision XT Video Tracking System (Version 7.0.418; Noldus, Wageningen, The Netherlands). The intensity of the light within the activity cages (measured in the centre at the level of the floor) ranged between 4 and 8 LUX.
The rats were pretreated with test compound or vehicle at 60 min before the start of the activity recordings and placed into individual cages. The rats were challenged with JNJ-42153605 (3-(cyclopropylmethyl)-7-(4-phenylpiperidin-1-yl)-8-(trifluoromethyl)[1,2,4]triazolo[4,3-a]pyridine; WO2010/130424; Cid et al. J. Med. Chem. 2012, 55, 8770-8789) (20 mg/kg, i.v.) 30 min before the start of the activity recording combined with scopolamine (0.16 mg/kg, i.v.) just before the start of the activity measurements Immediately after the injection of scopolamine, the rats were placed into the activity monitors and total distance travelled over the first 30 min was measured.
Animals receiving the combination of JNJ-42153605 and scopolamine (n=433) almost always travelled a distance of less than 1500 cm (<1500 cm) (only 2.5% of the control rats travelled a distance of more than 1500 cm (>1500 cm)). On the other hand, animals challenged with scopolamine alone (n=215) always travelled a total distance of more than 1500 cm (>1500 cm) and almost always (in 95.8% of the rats) a distance of more than 4400 cm (>4400 cm). […] For reversal of the inhibitory effect of JNJ-42153605 on the scopolamine-induced hyperlocomotion, two all-or-none criteria were adopted: (1) reversal: total distance >1500 cm; (2) normalization: total distance >4400 cm.

The test system of data set [3] is Wiga rats. The data set is described as follows: Reserpine interaction test in rats. The settings on record: for ED50: Rattus norvegicus, po, Time 60, reserpine 10 mg/kg SC, Wiga rats, read-out: ED50, reversal of reserpine-induced ptosis. The format is in vivo, rat. How it is done:
4) Reserpine Interaction Test in Rats
It was investigated to what extent the mydriatic action of test compounds was sufficient to counteract the miosis induced by the monoamines-depleting agent reserpine (10 mg/kg; SC) in Wiga rats.
The effects are illustrated in FIG. 3. […] The reference mGlu2 NAMs RO-4995819 (40 mg/kg, p.o.), RO-4491533 (40 mg/kg, p.o.; 10 mg/kg, s.c.) and [CAS 579473-69-1]

Data set [4] deals with Male Wiga Wistar rats. The data set is described as follows: Reversal of LY-404039-induced decrease of palpebral opening in apomorphine-challenged rats. The data set is classed as in vivo. The following applies: Rattus norvegicus, reversal of LY-404039-induced decrease of palpebral opening (cumulative score >26) in apomorphine challenged rats. How it is done: 6) Reversal of LY-404039-Induced Decrease of Palpebral Opening in Apomorphine-Challenged Rats.
Male Wiga Wistar rats (Crl:WI; Charles River Germany; 220±40 g) were housed under standard laboratory conditions (21±2° C.; 50-65% relative humidity; light-dark cycle set at 12 h; lights on at 6.00 h) and fasted overnight prior to the start of the experiments (tap water remained available ad libitum). During the test period, they were housed in individual cages. The local Ethical Committee approved all studies in compliance with the Declaration of Helsinki. Palpebral opening was scored every 5 min over the first hour after injection of apomorphine (1.0 mg/kg, i.v.) in animals either pretreated or not pretreated with LY-404039 (2.5 mg/kg, s.c.) at 1 h prior to the apomorphine injection. The animals were also pretreated with test compound or solvent at a predefined interval before apomorphine challenge. The score system was: (5) exophthalmos, (4) wide open, (3) open for three-quarters, (2) half open, (1) open for one-quarter, (0) closed. The scores for palpebral opening were cumulated over the 60-min observation period. A cumulative palpebral opening score >26 was selected for drug-induced reversal of the LY-404039-induced decrease of palpebral opening (occurrence in 3.2% of control animals pretreated with LY-404039 (n=154) versus in 99.5% of control rats not pretreated with LY-404039 (n=6335)).
In animals receiving apomorphine alone the median palpebral opening is 43 whereas in animals receiving apomorphine and LY-404039, the median palpebral opening is 17.

T1 sequence (Q14416 19-872): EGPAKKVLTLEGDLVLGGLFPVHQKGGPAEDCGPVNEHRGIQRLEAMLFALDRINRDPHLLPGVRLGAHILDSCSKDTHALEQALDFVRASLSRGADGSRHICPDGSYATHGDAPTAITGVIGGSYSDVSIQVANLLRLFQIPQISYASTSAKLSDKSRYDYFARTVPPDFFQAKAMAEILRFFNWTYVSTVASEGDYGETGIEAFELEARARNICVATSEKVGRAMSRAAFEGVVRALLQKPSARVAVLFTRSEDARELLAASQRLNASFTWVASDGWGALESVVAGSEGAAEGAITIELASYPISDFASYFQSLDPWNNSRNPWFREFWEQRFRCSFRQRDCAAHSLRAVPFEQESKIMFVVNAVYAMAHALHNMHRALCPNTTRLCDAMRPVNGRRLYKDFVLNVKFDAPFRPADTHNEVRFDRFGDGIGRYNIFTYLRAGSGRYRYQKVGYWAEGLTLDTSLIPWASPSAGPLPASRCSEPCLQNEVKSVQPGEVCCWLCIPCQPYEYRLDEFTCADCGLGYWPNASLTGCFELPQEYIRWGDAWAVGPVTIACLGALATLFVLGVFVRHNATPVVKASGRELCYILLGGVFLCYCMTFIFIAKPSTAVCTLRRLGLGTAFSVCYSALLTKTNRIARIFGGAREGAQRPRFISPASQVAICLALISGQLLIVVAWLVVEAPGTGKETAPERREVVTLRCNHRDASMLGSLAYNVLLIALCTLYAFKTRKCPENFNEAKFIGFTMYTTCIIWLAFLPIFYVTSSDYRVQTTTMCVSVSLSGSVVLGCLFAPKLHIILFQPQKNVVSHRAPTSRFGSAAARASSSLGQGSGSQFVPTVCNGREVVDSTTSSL

For `CCOc1nc(N2C[C@H](C)n3ncc(-c4ccnc(C)c4)c3C2=O)ccc1C(F)(F)F` (single isomer, unassigned) [compound 200], the melting point was 122.3 °C. In data set [1], the IC50 is 5.89e-09 M and the Emax worked out at 105%. Further, in data set [2], the ED50 turned out to be 3.15 mg/kg. In addition, the ED50 in data set [3] was determined as 0.13 mg/kg.

For the compound `Cc1cc(-c2cccc(C3=Nc4cc(C)c(C(F)(F)F)cc4NC(=O)C3)c2)cc(C)n1` [RO-4491533, reference compound], the “interactions with reserpine (mydriasis, reversal of ptosis, miosis, sedation)” value in data set [3] (10 mg/kg, s.c.) is “devoid of these interactions with reserpine”; in data set [3] (40 mg/kg, p.o.), “devoid of these interactions with reserpine”.

Consider `Nc1ccc(C#Cc2cnn3c(C(F)(F)F)cc(-c4ccc(C(F)(F)F)cc4)nc23)cn1` [RO-4995819, reference compound], for which the “interactions with reserpine (mydriasis, reversal of ptosis, miosis, sedation)” value in data set [3] (40 mg/kg, p.o.) is “devoid of these interactions with reserpine”.

For the compound `Cc1cc(-c2cnn3c2C(=O)N(c2ccc(C(F)(F)F)c(C)c2)C[C@@H]3C)ccn1` [compound 5], the values for the ED50 in data set [2] and in data set [4] (Route PO) were no less than 2.5 mg/kg and greater than 10 mg/kg, respectively.

Take `COCc1cc(-c2cnn3c2C(=O)N(c2ccc(C(F)(F)F)cc2)C[C@@H]3C)ccn1` [compound 22]: in data set [1], the IC50 was 6.92e-08 M and the Emax is 104%. Further, the ED50 in data set [3] amounted to 0.13 mg/kg.

As to `Cc1cncc(-c2cnn3c2C(=O)N(c2ccc(C(F)(F)F)cc2)C[C@@H]3C)c1` [compound 24], the 50% effective dose (ED50) in data set [3] is no less than 10 mg/kg.

Take `COc1c(C)cc(N2C[C@H](C)n3ncc(-c4ccnc(C)c4)c3C2=O)cc1C` [compound 34]: the melting point is greater than 300 °C. For the same compound, in data set [1], the IC50 is 5.62e-07 M and the Emax stood at 100%. Besides, in data set [3], the ED50 turned out to be 0.8 mg/kg.

For `COc1ccc(N2C[C@H](C)n3ncc(-c4ccnc(C)c4)c3C2=O)cc1F` [compound 35], in data set [1], the IC50 was 6.03e-07 M and the Emax is 100%. Further, the ED50 in data set [3] was greater than 10 mg/kg.

Regarding `Cc1ccc(-c2cnn3c2C(=O)N(c2ccc(C(F)(F)F)cc2)C[C@@H]3C)cn1` [compound 36], the melting point amounted to 128.2 °C. Further, in data set [1], the IC50 was 8.32e-07 M and the maximum response (Emax) amounted to 100%. The ED50 in data set [3] came to 5 mg/kg.

On to `COc1ccc(N2C[C@H](C)n3ncc(-c4ccnc(C)c4)c3C2=O)cc1` [compound 38], for which, in data set [1], the IC50 was 9.55e-07 M and the maximum response (Emax) was determined as 103%. The ED50 in data set [3] is 5 mg/kg.

For `Cc1cc(-c2cnn3c2C(=O)N(c2ccc(C(F)(F)F)cc2)CC3)ccn1` [compound 40], the melting point was 137 °C. Further, in data set [1], the IC50 was 1.48e-06 M and the Emax is 105%. Besides, the ED50 in data set [3] is 0.32 mg/kg.

`COc1ccc(N2C[C@H](C)n3ncc(-c4ccnc(C)c4)c3C2=O)cc1OC` [compound 41]: the melting point is 166.9 °C. In data set [1], the IC50 was 3.55e-06 M and the maximum response (Emax) came out at 95%. Also, the ED50 in data set [3] was 3.15 mg/kg.

As to `COc1cc(-c2cnn3c2C(=O)N(c2ccc(C(F)(F)F)cc2)C[C@@H]3C)ccn1` [compound 45, (7S)-3-(2-Methoxy-4-pyridyl)-7-methyl-5-[4-(trifluoromethyl)phenyl]-6,7-dihydropyrazolo[1,5-a]pyrazin-4-one], the ED50 in data set [2] amounted to 1.26 mg/kg; in data set [4] (Route PO), 0.79 mg/kg.

As to `Cc1ccc(N2C[C@H](C)n3ncc(-c4ccnc(C)c4)c3C2=O)cc1` [compound 78], in data set [3], the ED50 is no less than 10 mg/kg.

Regarding `Cc1cc(-c2cnn3c2C(=O)N(c2cccc(OC(C)C)c2)C[C@@H]3C)ccn1` [compound 79], in data set [1], the IC50 is 5.13e-07 M and the Emax worked out at 104%. For the same compound, the ED50 in data set [3] was determined as 5 mg/kg.

For the compound `Cc1cc(-c2cnn3c2C(=O)N(c2ccc(C#N)cc2)C[C@@H]3C)ccn1` [compound 80], the ED50 in data set [3] was greater than 2.5 mg/kg.

For the compound `CCOc1ccc(N2C[C@H](C)n3ncc(-c4ccnc(C)c4)c3C2=O)cc1.Cl` [compound 81, (7S)-5-(4-Ethoxyphenyl)-7-methyl-3-(2-methyl-4-pyridyl)-6,7-dihydropyrazolo[1,5-a]pyrazin-4-one hydrochloride salt], in data set [1], the IC50 is 5.37e-07 M and the Emax was found to be 103%. In addition, in data set [3], the ED50 was found to be 5 mg/kg.

`Cc1cc(-c2cnn3c2C(=O)N(c2cc(F)cc(F)c2)C[C@@H]3C)ccn1` [compound 82]: in data set [1], the IC50 is 6.31e-07 M and the Emax is 101%. For the same compound, in data set [3], the ED50 worked out at 5 mg/kg.

For `CCOc1cccc(N2C[C@H](C)n3ncc(-c4ccnc(C)c4)c3C2=O)c1` [compound 83], in data set [1], the IC50 is 7.94e-07 M and the Emax was found to be 104%. Besides, in data set [3], the ED50 was 5 mg/kg.

`Cc1cc(-c2cnn3c2C(=O)N(c2ccc(C(F)(F)F)cc2)C[C@@H]3C)cc[n+]1[O-]` [compound 140, (7S)-7-Methyl-3-(2-methyl-1-oxido-pyridin-1-ium-4-yl)-5-[4-(trifluoromethyl)phenyl]-6,7-dihydropyrazolo[1,5-a]pyrazin-4-one]: the melting point came out at 231.5 °C. In data set [1], the IC50 was 5.13e-07 M and the maximal effect (Emax) came out at 104%. In data set [4] (Route PO), the ED50 was 1.99 mg/kg.

The compound `Cc1cc(-c2cnn3c2C(=O)N(c2cccc(C(C)O)c2)C[C@@H]3C)ccn1` (some centres unmarked) [compound 148] showed a melting point of 149.7 °C. Moreover, in data set [1], the IC50 is 5.62e-06 M and the Emax stood at 100%. Besides, the ED50 in data set [3] is 1.99 mg/kg.

`Cc1cc(-c2cnn3c2C(=O)N(c2ccc(Cl)cc2Cl)C[C@@H]3C)ccn1` [compound 167]: in data set [1], the IC50 was 7.59e-07 M and the maximal effect (Emax) stood at 105%. Besides, the ED50 in data set [4] (Route PO) was greater than 40 mg/kg.

For the compound `Cc1cc(-c2cnn3c2C(=O)N(c2ccc(Cl)cc2C)C[C@@H]3C)ccn1` [compound 172], in data set [1], the IC50 is 1.05e-06 M and the maximal effect (Emax) is 105%. Further, the ED50 in data set [4] (Route SC) is greater than 40 mg/kg.

Compound `CCOc1nc(N2C[C@H](C)n3ncc(-c4ccnc(C)c4)c3C2=O)ccc1Cl` [compound 201] returned a melting point of 119.7 °C. In addition, in data set [1], the IC50 is 8.32e-09 M and the Emax stood at 105%. In addition, the ED50 in data set [2] is greater than 2.5 mg/kg.

For the compound `CNc1cc(-c2cnn3c2C(=O)N(c2ccc(C(F)(F)F)c(OC)n2)C[C@@H]3C)ccn1` [compound 237], the melting point was 125.82 °C (dec.). Further, in data set [1], the IC50 is 3.16e-09 M and the Emax was 111%. Further, the ED50 in data set [2] came out at 1.99 mg/kg.
